Results as given in the supplement of paper PMC10307832.

Columns and labels:
R406 + Luminespib = compound: COc1cc(Nc2ncc(F)c(Nc3ccc4c(n3)NC(=O)C(C)(C)O4)n2)cc(OC)c1OC [R406] + CCNC(=O)c1noc(-c2cc(C(C)C)c(O)cc2O)c1-c1ccc(CN2CCOCC2)cc1 [Luminespib] (partner 0.01 µM); test: relative viability (nuclei count vs DMSO), 5 days (fraction); higher = more cells survive
How it was run: (§1)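 Cells from lung cancer lines were seeded into 1536-well plates and, one day later, dosed by pin tool. Treatments were either a single drug or a fixed dose of an anchor drug with five library-drug doses (not always all listed) in √10 steps. After 5 days, nuclei were stained in a one-step fixation (final 0.05% Triton X-100, 1% formaldehyde, 1 ug/ml Hoechst) and counted on 4× images, and relative viability is the treated-to-vehicle nuclei ratio, as the median of duplicate plates.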

R406 + Dasatinib = compound: COc1cc(Nc2ncc(F)c(Nc3ccc4c(n3)NC(=O)C(C)(C)O4)n2)cc(OC)c1OC [R406] + Cc1nc(Nc2ncc(C(=O)Nc3c(C)cccc3Cl)s2)cc(N2CCN(CCO)CC2)n1 [Dasatinib] (partner 0.075 µM); test: as above
How it was run: as §1

Row | Cell Line | relative viability (R406 + Luminespib; first compound 0.08 µM) | relative viability (R406 + Luminespib; first compound 0.253 µM) | relative viability (R406 + Luminespib; first compound 0.8 µM) | relative viability (R406 + Luminespib; first compound 2.53 µM) | relative viability (R406 + Luminespib; first compound 8 µM) | relative viability (R406 + Dasatinib; first compound 0.08 µM) | relative viability (R406 + Dasatinib; first compound 0.253 µM) | relative viability (R406 + Dasatinib; first compound 0.8 µM) | relative viability (R406 + Dasatinib; first compound 2.53 µM) | relative viability (R406 + Dasatinib; first compound 8 µM)
1 | NCI-H838 | 0.277 | 0.319 | 0.176 | 0.234 | 0.236 | 0.25 | 0.287 | 0.52 | 0.204 | 0.219
2 | NCI-H1355 | 0.713 | 0.804 | 0.664 | 0.497 | 0.39 | 0.754 | 0.79 | 0.777 | 0.491 | 0.32
3 | HOP-62 | 0.858 | 1.01 | 0.901 | 0.95 | 0.947 | 0.618 | 0.73 | 0.797 | 0.729 | 0.391
4 | NCI-H2085 | 0.437 | 0.353 | 0.525 | 0.319 | 0.279 | 0.249 | 0.283 | 0.251 | 0.222 | 0.179
5 | SW 900 | 0.18 | 0.186 | 0.177 | 0.125 | 0.117 | 0.592 | 0.384 | 0.79 | 0.23 | 0.0973
